The results in this text go back to ChEMBL document CHEMBL3301562, “MMV Box screening against Plasmodium falciparum protein kinases and aminoacyl tRNA synthetases”.

SMILES strings stand for the structures.

What all share (assay type): functional
For assay [1], the target named is T1, Calcium-dependent protein kinase 4 (Plasmodium falciparum (isolate 3D7), UniProt Q8IBS5).
T1 sequence (Q8IBS5 whole entry): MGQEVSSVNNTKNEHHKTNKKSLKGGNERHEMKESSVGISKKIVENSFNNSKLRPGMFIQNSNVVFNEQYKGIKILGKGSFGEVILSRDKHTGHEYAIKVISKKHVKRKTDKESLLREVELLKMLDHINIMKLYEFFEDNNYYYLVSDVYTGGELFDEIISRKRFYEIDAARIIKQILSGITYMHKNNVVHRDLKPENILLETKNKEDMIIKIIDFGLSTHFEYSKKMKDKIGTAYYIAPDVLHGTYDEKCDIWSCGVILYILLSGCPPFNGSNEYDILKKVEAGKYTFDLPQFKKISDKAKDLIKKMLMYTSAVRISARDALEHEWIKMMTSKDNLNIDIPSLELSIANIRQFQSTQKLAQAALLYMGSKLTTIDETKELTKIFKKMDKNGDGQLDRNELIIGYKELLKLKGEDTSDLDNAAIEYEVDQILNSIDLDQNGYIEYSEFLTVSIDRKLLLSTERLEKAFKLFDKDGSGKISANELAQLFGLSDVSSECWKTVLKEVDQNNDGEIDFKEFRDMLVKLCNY
Put plainly: MMV: CDPK4 Protein kinase inhibition assay using recombinant PfCDPK4, syntide2 peptide substrate, ATP and KinaseGlo to measure % inhibition at 1 uM MMV box compound. A general note: Kinase-Glo measures the ATP left after a reaction by luminescence.

Assay [2] deals with T2, Mitogen-activated protein kinase (Plasmodium falciparum, UniProt Q25917).
T2 sequence (Q25917 whole entry): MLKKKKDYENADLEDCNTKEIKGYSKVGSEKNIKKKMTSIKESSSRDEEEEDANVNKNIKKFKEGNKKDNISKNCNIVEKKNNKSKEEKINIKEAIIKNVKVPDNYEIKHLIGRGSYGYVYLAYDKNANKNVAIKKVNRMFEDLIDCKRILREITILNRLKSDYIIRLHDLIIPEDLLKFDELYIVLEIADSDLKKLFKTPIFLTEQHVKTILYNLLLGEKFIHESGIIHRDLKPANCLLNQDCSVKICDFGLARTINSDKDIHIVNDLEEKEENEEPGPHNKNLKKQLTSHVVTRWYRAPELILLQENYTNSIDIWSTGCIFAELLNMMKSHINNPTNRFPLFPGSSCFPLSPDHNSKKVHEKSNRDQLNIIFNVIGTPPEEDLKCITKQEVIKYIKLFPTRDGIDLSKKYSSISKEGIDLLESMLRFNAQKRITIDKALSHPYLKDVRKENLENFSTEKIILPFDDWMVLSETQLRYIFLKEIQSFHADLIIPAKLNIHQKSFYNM
Kind of assay: Final concentrations were 1 uM ATP, 0.5 mM DTT, 1 mM MgCl2, 0.5 mg/mL BSA, and 10 ug/ml MAP2 in a buffer of 50 mM HEPES (pH 7.0). 0.5 mg/mL histone III-S served as the substrate (13); 100 uM AMP-PNP, an ATP analog, was used as a control inhibitor. Incubation time was 4 hours.

Assay [3] concerns the target T3, Cdk-related protein kinase 6 (Plasmodium falciparum, UniProt O77239).
T3 sequence (O77239 whole entry): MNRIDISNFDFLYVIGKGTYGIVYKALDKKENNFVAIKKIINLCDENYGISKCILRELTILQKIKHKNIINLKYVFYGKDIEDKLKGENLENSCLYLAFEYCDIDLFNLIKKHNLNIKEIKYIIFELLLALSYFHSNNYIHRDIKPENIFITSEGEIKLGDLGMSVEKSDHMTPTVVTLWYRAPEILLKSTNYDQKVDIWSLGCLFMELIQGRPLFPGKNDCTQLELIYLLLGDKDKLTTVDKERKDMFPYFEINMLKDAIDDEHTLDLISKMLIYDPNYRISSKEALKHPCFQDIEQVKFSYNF
Kind of assay: Final concentrations were 1.5 uM ATP, 5 mM MnCl2, and 15 ug/ml PK6 in a buffer of 100 mM Tris-HCl (pH 7.5). 50 ug/mL MBP was provided as the substrate; 10 uM staurosporine was used as a control inhibitor. Incubation time was 3 hours and 40 minutes.The catalytic activity of each kinase was considered proportional to ATP consumed, as determined from measurements of residual [ATP] with the luciferase-based reagent Kinase-Glo (Promega) following incubation. Luminescence (proportional to residual [ATP]) was measured on the plate readers FLx800 (BioTek Instruments, Winooski, VT, USA) and MicroBeta2.

Assay [4] concerns the target T4, Putative uncharacterized protein pk7 (Plasmodium falciparum, UniProt O96214).
T4 sequence (O96214 whole entry): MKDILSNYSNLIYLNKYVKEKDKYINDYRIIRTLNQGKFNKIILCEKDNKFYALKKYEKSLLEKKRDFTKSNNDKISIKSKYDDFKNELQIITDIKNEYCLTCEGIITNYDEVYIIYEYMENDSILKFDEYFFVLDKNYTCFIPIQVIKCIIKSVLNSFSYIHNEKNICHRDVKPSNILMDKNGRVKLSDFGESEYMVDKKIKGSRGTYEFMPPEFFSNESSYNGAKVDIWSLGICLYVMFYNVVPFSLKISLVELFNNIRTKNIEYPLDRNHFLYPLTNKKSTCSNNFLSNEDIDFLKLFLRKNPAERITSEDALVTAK
Kind of assay: Final concentrations were 1 uM ATP, 2 mM DTT, 20 mM MgCl2, 2 mM MnCl2, 0.01% BSA, and 6 ug/ml PK7, in a buffer of 20 mM Tris-HCl (pH 7.5). The enzyme itself was the only substrate present (since autophosphorylation occurs); 100 uM 1NA-PP1 was used as a control inhibitor. Incubation time was 3 hours.

In assay [5] the target is Calcium-dependent protein kinase 1 (Plasmodium falciparum, UniProt P62344). Kind of assay: MMV: CDPK1 Protein kinase inhibition assay using recombinant PfCDPK1, syntide 2 peptide substrate, ATP and KinaseGlo to measure % inhibition at 1 uM MMV box compound.
Assay [6] deals with Lysine--tRNA ligase (Plasmodium falciparum (isolate 3D7), UniProt Q8IDJ8). Kind of assay: MMV: KRS recombinant Plasmodium falciparum Lysyl-tRNA-synthetase, assay with yeast tRNA, ATP, and lysine and 3 uM MMV malaria box compound, assay read out with kinase glo as % inhibition.
The target of assay [7] is T5, Proline--tRNA ligase (Plasmodium falciparum (isolate 3D7), UniProt Q8I5R7).
T5 sequence (Q8I5R7 whole entry): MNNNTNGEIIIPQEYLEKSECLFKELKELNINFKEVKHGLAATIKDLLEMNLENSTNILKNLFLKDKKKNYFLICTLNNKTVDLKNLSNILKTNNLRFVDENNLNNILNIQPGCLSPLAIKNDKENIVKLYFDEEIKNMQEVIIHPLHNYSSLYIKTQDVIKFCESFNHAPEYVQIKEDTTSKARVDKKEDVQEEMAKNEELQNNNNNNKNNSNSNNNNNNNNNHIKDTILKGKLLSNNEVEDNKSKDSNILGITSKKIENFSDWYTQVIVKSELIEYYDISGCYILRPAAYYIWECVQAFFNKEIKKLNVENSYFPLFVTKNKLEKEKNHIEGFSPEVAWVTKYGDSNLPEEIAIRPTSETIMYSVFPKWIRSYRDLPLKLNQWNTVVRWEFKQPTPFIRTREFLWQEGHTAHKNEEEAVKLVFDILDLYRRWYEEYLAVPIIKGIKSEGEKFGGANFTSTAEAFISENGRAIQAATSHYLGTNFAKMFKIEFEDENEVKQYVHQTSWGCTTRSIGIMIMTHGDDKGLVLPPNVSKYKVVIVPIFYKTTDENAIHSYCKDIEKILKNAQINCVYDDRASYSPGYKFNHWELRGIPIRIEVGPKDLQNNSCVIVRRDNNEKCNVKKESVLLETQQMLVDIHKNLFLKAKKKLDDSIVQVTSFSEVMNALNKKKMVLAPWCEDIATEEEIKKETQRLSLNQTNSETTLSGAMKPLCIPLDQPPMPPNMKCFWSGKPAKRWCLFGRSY
Kind of assay: MMV: ProRS recombinant Plasmodium falciparum Prolyl-tRNA-synthetase, assay with yeast tRNA, ATP, and proline and 3 uM MMV malaria box compound, assay read out with kinase glo as % inhibition.

Sequence of Lysine--tRNA ligase (Q8IDJ8 whole entry): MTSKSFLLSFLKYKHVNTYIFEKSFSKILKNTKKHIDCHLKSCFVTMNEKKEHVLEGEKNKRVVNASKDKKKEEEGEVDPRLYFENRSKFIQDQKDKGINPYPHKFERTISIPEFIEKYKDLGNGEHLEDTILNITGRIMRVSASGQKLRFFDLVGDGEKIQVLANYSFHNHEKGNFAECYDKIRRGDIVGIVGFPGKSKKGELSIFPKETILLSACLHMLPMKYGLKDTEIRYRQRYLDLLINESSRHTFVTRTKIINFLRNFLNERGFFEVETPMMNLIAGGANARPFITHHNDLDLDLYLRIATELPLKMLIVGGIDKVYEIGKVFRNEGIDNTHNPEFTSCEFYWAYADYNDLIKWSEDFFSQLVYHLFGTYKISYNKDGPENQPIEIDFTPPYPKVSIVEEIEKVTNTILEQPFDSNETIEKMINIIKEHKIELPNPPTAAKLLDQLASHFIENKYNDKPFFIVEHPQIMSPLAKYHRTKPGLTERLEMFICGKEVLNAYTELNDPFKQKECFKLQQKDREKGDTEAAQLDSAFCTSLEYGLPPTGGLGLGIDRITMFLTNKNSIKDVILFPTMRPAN
Sequence of Calcium-dependent protein kinase 1 (P62344 whole entry): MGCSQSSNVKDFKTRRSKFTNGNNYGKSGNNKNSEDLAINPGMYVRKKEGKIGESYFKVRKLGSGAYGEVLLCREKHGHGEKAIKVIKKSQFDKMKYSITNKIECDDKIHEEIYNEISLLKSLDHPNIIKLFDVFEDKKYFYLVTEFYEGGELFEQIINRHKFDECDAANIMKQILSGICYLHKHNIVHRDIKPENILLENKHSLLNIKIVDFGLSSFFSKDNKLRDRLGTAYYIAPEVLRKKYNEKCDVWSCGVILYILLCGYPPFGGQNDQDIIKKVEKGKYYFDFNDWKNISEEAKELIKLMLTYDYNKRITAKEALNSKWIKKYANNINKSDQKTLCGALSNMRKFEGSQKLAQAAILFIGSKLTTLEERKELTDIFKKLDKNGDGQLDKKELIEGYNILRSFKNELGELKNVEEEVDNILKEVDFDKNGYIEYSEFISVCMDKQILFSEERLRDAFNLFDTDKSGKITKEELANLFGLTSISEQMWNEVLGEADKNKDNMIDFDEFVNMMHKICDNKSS

The term IC50 denotes the point on the concentration scale where inhibition reaches its midpoint. `Cc1cccc(Nc2nc(N)c3ccccc3n2)c1`: the IC50 is over 1000 nM in assay [1]; over 1000 nM in assay [2]; over 1000 nM in assay [3]; over 1000 nM in assay [4]; over 1000 nM in assay [5]; over 2500 nM in assay [6]. In assay [7], the IC50 was over 2500 nM.

Turning to `COc1ccc(-c2nc3cc(Cc4ccc5[nH]c(-c6ccc(OC)cc6)nc5c4)ccc3[nH]2)cc1`, the IC50 in assay [1] was over 1000 nM; in assay [2] it was over 1000 nM; in assay [3], over 1000 nM; in assay [4], over 1000 nM; in assay [5], over 1000 nM; in assay [6], over 2500 nM. The IC50 in assay [7] was over 2500 nM.

Regarding `Cc1ccc(S(=O)(=O)c2c(COC(=O)c3cccc(C)c3)c(-c3ccccc3)nn2C)cc1`, the IC50 was over 1000 nM in assay [1]; over 1000 nM in assay [2]; over 1000 nM in assay [3]; over 1000 nM in assay [4]; over 1000 nM in assay [5]; over 2500 nM in assay [6]. For the same compound, the 50% inhibitory concentration (IC50) in assay [7] is over 2500 nM.

In the case of `Oc1c2c(nc3cc(-c4ccccc4)nn13)CCCC2`, the IC50 in assay [1] is over 1000 nM; in assay [2] it was over 1000 nM; in assay [3] it was over 1000 nM; in assay [4] it was over 1000 nM; in assay [5], over 1000 nM; in assay [6], over 2500 nM. In addition, the IC50 in assay [7] is over 2500 nM.

For `O=C(NC1CCN(Cc2ccccc2)CC1)c1cc(-c2cccnc2)nc2ccc(Cl)cc12`, the IC50 was over 1000 nM in assay [1]; over 1000 nM in assay [2]; over 1000 nM in assay [3]; over 1000 nM in assay [4]; over 1000 nM in assay [5]; over 2500 nM in assay [6]. Also, the IC50 in assay [7] was over 2500 nM.

Regarding `COc1ccc2nc(C)cc(Nc3ccccc3O)c2c1`, the IC50 in assay [1] is over 1000 nM; in assay [2] it was over 1000 nM; in assay [3], over 1000 nM; in assay [4] it was over 1000 nM; in assay [5], over 1000 nM; in assay [6], over 2500 nM. Further, the IC50 in assay [7] was over 2500 nM.

Turning to `COc1cc(OC)c(N(C)C(=O)c2cc3c(s2)-c2ccccc2S(=O)(=O)C3)cc1Cl`, the IC50 in assay [1] is over 1000 nM; in assay [2] it was over 1000 nM; in assay [3], over 1000 nM; in assay [4] it was over 1000 nM; in assay [5] it was over 1000 nM; in assay [6] it was over 2500 nM. The IC50 in assay [7] is over 2500 nM.

On to `Cc1cc(C)c2c(c1)OCN(Cc1ccccc1Cl)C2`, for which the IC50 was over 1000 nM in assay [1]; over 1000 nM in assay [2]; over 1000 nM in assay [3]; over 1000 nM in assay [4]; over 1000 nM in assay [5]; over 2500 nM in assay [6]. Besides, the IC50 in assay [7] was over 2500 nM.

Consider `O=C(Nc1ccc(-c2nc3ccccc3[nH]2)cc1)c1ccc(Cl)c(Cl)c1`, for which the IC50 was over 1000 nM in assay [1]; over 1000 nM in assay [2]; over 1000 nM in assay [3]; over 1000 nM in assay [4]; over 1000 nM in assay [5]; over 2500 nM in assay [6]. Also, in assay [7], the IC50 is over 2500 nM.

`CCCCC(O)(c1ccc(Cl)cc1)C(CN1CCOCC1)c1ccc(Cl)cc1` (stereo not drawn): the IC50 is over 1000 nM in assay [1]; over 1000 nM in assay [2]; over 1000 nM in assay [3]; over 1000 nM in assay [4]; over 1000 nM in assay [5]; over 2500 nM in assay [6]. The half-maximal inhibitory concentration (IC50) in assay [7] is over 2500 nM.

As to `Cc1sc(NC(=O)c2ccco2)c(C(c2cccnc2)N2CCC(Cc3ccccc3)CC2)c1C` (stereo not drawn), the IC50 was over 1000 nM in assay [1]; over 1000 nM in assay [2]; over 1000 nM in assay [3]; over 1000 nM in assay [4]; over 1000 nM in assay [5]; over 2500 nM in assay [6]. Besides, in assay [7], the IC50 was over 2500 nM.

Take `CC(C)CNC(=O)c1c(N)n(CCc2ccccc2F)c2nc3ccccc3nc12`: the IC50 in assay [1] is over 1000 nM; in assay [2], over 1000 nM; in assay [3], over 1000 nM; in assay [4], over 1000 nM; in assay [5] it was over 1000 nM; in assay [6], over 2500 nM. Further, the IC50 in assay [7] was over 2500 nM.

`O=c1nc(C=Cc2ccc(Br)cc2)oc2ccccc12`: the IC50 in assay [1] was 700 nM; in assay [2] it was over 1000 nM; in assay [3], over 1000 nM; in assay [4], over 1000 nM; in assay [5], over 1000 nM; in assay [6], over 2500 nM. The IC50 in assay [7] is over 2500 nM.

Consider `CCn1nc(-c2ccc(C(=O)OC)cc2)nc2c(=O)n(C)c(=O)nc1-2`, for which the IC50 in assay [1] is over 1000 nM; in assay [2], over 1000 nM; in assay [3], over 1000 nM; in assay [4] it was over 1000 nM; in assay [5], over 1000 nM; in assay [6] it was over 2500 nM. The IC50 in assay [7] was over 2500 nM.
